Reference: ChEMBL document CHEMBL5390223, “Strategies for the Discovery of Oxazolidinone Antibacterial Agents: Development and Future Perspectives” (J Med Chem, 2023)
In brackets after ≈: the same amount, converted by molar mass.

Assays:
[1] = system: Mycobacterium tuberculosis variant bovis; test: Antimycobacterial activity against Mycobacterium tuberculosis H37Rv assessed as reduction in bacterial growth by MABA assay; type: functional
[2] = system: Mycobacterium tuberculosis variant bovis; test: Antimycobacterial activity against Mycobacterium tuberculosis H37Rv assessed as reduction in bacterial cell growth; type: functional

Compound | MIC [1] | MIC [2]
CC(=O)NC[C@H]1CN(c2ccc(N3CCOCC3)c(F)c2)C(=O)O1 [LINEZOLID] | 0.5 µg/mL (≈ 1.48 µM) | 
CC(=O)NC[C@H]1CN(c2ccc(N3CCSCC3)c(F)c2)C(=O)O1 [SUTEZOLID] |  | 0.125 µg/mL (≈ 0.354 µM)
